The values that follow come from paper PMC12586182 (Frontiers in Oncology, 2025).

What all share (test): Kinase panel profiling at 1 µmol/L (mobility shift assay, Carna)
Holding throughout (assay type): biochemical
What all share (settings): 1 µmol/L of BTK inhibitor

Experiment [1] concerns the target T1, ARG (Homo sapiens, UniProt P42684).
T1 construct: purchased Carna Biosciences

Experiment [2] addresses T2, EPHB3 (Homo sapiens, UniProt P54753).
T2 construct: purchased Carna Biosciences
T2 sequence (P54753 34-998): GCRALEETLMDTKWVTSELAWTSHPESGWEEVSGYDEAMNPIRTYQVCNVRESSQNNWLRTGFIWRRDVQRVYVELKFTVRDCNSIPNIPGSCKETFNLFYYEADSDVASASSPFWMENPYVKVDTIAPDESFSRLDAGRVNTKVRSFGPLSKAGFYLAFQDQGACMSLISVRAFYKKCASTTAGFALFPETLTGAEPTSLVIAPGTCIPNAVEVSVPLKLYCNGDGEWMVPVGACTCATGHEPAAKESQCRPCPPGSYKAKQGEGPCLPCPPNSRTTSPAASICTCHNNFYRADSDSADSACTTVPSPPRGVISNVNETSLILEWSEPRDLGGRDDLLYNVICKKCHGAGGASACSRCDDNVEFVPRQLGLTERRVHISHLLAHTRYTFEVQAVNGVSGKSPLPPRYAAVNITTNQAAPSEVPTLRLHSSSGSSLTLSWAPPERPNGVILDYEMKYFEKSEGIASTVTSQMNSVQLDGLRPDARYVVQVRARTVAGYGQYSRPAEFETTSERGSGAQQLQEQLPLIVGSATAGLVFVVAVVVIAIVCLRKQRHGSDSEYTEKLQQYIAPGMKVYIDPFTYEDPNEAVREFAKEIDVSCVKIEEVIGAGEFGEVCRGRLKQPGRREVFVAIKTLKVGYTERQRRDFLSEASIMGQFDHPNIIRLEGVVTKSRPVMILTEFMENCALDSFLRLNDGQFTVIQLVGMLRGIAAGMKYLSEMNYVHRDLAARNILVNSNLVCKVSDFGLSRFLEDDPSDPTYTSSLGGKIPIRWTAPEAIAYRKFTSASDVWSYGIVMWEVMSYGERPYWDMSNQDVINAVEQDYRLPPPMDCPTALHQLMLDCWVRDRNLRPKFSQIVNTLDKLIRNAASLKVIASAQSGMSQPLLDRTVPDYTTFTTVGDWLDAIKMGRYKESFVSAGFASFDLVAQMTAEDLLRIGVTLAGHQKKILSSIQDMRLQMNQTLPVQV

For experiment [3], the target named is T3, FLT1 (Homo sapiens, UniProt P17948).
T3 construct: purchased Carna Biosciences

Experiment [4] concerns the target T4, AKT3 (Homo sapiens, UniProt Q9Y243).
T4 construct: purchased Carna Biosciences

The target of experiment [5] is T5, CK1δ (Homo sapiens, UniProt P48730).
T5 construct: purchased Carna Biosciences

The target of experiment [6] is T6, CK1ε (Homo sapiens, UniProt P49674).
T6 construct: purchased Carna Biosciences

For experiment [7], the target named is T7, MAP4K2 (Homo sapiens, UniProt Q12851).
T7 construct: purchased Carna Biosciences
T7 sequence (Q12851 1-820): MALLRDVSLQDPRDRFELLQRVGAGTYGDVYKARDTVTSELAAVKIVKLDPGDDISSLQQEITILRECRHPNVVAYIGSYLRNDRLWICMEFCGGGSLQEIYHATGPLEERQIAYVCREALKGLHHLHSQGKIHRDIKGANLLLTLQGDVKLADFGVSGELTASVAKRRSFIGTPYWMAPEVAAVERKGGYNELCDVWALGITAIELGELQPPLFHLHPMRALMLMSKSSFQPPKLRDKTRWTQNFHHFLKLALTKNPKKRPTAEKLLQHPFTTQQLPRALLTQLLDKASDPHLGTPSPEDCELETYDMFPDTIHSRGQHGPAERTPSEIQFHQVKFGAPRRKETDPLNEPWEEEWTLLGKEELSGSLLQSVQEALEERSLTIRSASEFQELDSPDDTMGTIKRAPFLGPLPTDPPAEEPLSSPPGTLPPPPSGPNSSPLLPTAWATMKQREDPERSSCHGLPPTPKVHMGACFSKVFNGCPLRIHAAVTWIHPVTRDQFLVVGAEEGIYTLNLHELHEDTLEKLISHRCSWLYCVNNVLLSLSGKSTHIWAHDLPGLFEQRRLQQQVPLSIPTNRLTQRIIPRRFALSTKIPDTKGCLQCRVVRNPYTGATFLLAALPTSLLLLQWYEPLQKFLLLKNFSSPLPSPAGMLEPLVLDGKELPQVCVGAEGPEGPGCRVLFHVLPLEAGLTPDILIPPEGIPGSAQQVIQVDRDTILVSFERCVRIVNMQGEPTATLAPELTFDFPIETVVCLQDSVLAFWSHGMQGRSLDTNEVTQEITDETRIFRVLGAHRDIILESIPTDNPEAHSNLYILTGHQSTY

The target in experiment [8] is T8, SPHK2 (Homo sapiens, UniProt Q9NRA0).
T8 construct: purchased Carna Biosciences
T8 sequence (Q9NRA0 1-654): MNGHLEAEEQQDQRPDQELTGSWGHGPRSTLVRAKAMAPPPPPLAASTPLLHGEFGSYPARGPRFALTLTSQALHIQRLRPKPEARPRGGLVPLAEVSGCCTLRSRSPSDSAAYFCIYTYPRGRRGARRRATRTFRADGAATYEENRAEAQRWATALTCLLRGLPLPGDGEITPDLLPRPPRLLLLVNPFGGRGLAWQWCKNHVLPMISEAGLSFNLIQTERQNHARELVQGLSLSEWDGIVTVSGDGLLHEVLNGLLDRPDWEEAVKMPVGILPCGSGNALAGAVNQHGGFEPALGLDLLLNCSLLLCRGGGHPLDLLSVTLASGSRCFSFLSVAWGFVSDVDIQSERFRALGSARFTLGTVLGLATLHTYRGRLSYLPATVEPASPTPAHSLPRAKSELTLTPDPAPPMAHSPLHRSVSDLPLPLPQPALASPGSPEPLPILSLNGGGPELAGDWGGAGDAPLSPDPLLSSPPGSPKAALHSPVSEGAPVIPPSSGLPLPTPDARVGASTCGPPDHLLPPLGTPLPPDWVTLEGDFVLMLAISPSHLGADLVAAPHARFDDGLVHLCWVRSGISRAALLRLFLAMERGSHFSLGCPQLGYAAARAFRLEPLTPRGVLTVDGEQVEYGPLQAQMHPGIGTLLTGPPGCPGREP

T4 sequence (Q9Y243 whole entry): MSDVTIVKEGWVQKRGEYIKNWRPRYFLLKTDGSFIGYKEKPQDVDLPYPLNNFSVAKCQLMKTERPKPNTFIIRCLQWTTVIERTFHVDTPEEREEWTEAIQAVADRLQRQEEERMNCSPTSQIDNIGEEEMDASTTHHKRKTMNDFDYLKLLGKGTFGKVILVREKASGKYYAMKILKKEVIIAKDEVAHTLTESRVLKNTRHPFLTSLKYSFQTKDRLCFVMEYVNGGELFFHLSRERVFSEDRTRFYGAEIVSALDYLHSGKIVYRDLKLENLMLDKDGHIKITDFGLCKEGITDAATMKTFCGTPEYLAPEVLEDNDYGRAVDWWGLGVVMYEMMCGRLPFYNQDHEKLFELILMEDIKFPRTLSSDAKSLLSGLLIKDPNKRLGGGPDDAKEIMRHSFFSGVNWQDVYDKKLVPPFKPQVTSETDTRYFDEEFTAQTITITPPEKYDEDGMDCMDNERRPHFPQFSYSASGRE
T1 sequence (P42684 whole entry): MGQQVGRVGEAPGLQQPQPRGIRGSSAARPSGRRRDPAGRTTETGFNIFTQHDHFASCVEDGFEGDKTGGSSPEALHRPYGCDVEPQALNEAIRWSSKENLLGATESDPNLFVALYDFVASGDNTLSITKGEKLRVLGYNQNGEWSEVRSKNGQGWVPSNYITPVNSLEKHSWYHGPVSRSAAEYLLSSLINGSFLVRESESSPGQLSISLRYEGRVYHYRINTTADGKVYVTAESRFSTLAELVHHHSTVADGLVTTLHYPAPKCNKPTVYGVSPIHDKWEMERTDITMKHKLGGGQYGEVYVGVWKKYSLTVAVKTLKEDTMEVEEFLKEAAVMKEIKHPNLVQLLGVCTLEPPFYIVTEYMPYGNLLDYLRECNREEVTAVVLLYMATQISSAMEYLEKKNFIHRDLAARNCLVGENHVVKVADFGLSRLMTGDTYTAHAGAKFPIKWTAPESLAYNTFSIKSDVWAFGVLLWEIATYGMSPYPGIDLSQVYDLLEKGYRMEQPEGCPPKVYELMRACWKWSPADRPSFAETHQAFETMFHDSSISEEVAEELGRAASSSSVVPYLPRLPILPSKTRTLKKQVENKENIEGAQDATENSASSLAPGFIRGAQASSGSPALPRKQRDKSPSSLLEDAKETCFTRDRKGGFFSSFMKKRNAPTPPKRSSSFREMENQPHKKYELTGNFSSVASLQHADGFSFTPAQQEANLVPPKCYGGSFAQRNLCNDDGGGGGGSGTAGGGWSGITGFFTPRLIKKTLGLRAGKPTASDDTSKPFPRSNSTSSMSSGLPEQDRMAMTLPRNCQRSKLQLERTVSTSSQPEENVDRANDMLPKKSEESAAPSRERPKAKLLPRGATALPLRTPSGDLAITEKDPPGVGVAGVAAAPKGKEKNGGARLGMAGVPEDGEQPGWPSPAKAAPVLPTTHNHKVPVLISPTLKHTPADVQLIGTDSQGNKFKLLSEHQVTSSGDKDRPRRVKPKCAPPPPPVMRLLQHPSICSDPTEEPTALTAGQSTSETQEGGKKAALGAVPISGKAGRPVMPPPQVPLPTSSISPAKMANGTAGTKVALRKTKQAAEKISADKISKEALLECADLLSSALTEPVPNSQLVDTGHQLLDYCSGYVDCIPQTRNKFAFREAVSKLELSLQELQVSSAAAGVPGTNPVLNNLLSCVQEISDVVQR
T6 sequence (P49674 whole entry): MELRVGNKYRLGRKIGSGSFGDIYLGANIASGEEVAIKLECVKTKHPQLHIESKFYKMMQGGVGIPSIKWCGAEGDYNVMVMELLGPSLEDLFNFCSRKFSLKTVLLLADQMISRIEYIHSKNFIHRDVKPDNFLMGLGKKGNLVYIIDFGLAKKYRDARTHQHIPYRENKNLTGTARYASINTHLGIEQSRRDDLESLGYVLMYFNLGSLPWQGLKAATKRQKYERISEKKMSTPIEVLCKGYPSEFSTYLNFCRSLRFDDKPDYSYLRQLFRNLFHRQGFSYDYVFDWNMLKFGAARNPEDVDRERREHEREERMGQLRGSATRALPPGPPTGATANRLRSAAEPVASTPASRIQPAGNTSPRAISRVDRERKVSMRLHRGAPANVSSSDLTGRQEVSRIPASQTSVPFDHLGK
T5 sequence (P48730 whole entry): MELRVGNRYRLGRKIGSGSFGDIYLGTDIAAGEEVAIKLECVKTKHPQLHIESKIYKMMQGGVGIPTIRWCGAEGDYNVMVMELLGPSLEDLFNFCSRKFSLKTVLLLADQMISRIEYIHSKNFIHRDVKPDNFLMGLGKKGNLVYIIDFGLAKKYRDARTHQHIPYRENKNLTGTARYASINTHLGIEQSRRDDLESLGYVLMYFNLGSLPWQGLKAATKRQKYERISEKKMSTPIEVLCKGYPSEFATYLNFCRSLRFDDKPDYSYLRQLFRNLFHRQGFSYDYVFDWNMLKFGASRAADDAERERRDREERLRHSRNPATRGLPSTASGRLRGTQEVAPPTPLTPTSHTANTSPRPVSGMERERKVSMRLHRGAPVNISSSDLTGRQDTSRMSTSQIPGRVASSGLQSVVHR
T3 sequence (P17948 27-1338): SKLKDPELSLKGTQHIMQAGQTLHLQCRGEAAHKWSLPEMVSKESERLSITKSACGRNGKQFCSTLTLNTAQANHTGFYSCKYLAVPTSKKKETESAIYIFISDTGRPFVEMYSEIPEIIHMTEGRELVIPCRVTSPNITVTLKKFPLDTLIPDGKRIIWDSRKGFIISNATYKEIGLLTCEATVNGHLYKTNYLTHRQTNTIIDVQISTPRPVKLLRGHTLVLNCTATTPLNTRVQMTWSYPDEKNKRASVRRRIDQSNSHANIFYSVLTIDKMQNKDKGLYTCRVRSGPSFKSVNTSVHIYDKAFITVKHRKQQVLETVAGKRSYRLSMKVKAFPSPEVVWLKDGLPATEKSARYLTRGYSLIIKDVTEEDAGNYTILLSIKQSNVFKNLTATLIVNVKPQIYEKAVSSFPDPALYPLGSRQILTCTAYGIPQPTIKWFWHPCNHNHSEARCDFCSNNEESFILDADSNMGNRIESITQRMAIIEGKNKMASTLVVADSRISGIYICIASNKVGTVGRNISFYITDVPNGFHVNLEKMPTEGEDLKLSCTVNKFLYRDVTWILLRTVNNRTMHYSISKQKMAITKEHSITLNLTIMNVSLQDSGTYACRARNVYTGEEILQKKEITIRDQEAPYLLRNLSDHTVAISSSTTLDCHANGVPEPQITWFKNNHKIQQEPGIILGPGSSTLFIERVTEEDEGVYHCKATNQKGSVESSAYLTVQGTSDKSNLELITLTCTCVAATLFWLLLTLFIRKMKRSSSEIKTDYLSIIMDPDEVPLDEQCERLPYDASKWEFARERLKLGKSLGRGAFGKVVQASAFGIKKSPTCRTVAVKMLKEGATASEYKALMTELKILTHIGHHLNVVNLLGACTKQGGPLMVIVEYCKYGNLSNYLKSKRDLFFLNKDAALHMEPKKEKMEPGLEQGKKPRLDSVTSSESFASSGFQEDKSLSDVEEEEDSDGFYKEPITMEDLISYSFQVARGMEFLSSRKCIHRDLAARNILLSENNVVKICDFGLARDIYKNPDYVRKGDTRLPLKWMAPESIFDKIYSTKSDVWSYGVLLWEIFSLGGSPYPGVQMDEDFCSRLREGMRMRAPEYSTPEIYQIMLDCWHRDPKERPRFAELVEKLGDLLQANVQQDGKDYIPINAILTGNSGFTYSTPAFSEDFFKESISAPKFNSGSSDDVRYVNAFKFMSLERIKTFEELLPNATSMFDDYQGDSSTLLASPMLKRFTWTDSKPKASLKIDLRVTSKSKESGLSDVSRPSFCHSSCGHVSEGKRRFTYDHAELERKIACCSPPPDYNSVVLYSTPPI

`CC#CC(=O)N1CCC[C@H]1c1nc(-c2ccc(C(=O)Nc3ccccn3)cc2)c2c(N)nccn12` [acalabrutinib]: the “Percentage inhibition of kinase enzyme activity” value (shortened to “Percentage inhibition”) is recorded as 3.53% in experiment [1]; 1.64% in experiment [2]; -1.14% in experiment [3]; -4.92% in experiment [4]; 2.76% in experiment [5]; -10.49% in experiment [6]. The “Percentage inhibition” value is reported as -11.21% in experiment [7] and 6.90% in experiment [8].

As for `C=CC(=O)N1CCC[C@@H](n2nc(-c3ccc(Oc4ccccc4)cc3)c3c(N)ncnc32)C1` [ibrutinib], the “Percentage inhibition” value in experiment [1] is given as 6.86%; in experiment [2], 2.93%; in experiment [3] it was 72.57%; in experiment [4] it was -2.25%; in experiment [5], 7.46%; in experiment [6] it was 49.55%. Further, the “Percentage inhibition” value in experiment [7] is reported as -4.43%; in experiment [8], 9.66%.

Consider `O=C(c1ccc(Oc2ccccc2)cc1Cl)c1c[nH]c2ncnc(N[C@@H]3CC[C@@H](CO)OC3)c12` [nemtabrutinib], for which the “Percentage inhibition” value in experiment [1] is recorded as 62.68%; in experiment [2] it was 73.92%; in experiment [3], 87.14%; in experiment [4], 9.45%; in experiment [5], 25.76%; in experiment [6] it was 95.45%. For the same compound, the “Percentage inhibition” value in experiment [7] is on record as 78.03%; in experiment [8], 1.97%.

In the case of `COc1ccc(F)cc1C(=O)NCc1ccc(-c2nn([C@@H](C)C(F)(F)F)c(N)c2C(N)=O)cc1` [pirtobrutinib], the “Percentage inhibition” value in experiment [1] is -0.47%; in experiment [2] it was 34.88%; in experiment [3], 4.85%; in experiment [4], -2.20%; in experiment [5] it was 6.20%; in experiment [6] it was 15.87%. In addition, the entries for the “Percentage inhibition” value in experiment [7] and in experiment [8] were 3.56% and -12.42%, respectively.

For `C=CC(=O)N1CCC([C@@H]2CCNc3c(C(N)=O)c(-c4ccc(Oc5ccccc5)cc4)nn32)CC1` [zanubrutinib], the “Percentage inhibition” value in experiment [2] is -2.82%; in experiment [3] it was 22.02%.
